Laboratory results as given in PubChem BioAssay AID330 (DTP/NCI, 2004).
“And” between values parts separate entries of the source, which are not always exact repeats. Equal values may be shown once. Toxic doses and inconclusive results are not listed.

Tested on: P388 leukemia ip, CD2F1 mice, survival T/C
Assay: NCI In Vivo Anticancer Drug Screen. Data for tumor model P388 Leukemia (intraperitoneal) in CD2F1 (CDF1) mice
Settings: endpoint: median survival time, higher = longer survival
How it was run: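 Mice carrying the transplanted tumor received test compound or vehicle. Survival was recorded in each group, and the value is the treated-group measurement divided by that of the vehicle-treated control group.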

[1] = dose: 60.0 mg/kg/injection, schedule: Q01DX005 (ip), vehicle: Klucel (hydroxypropylcellulose) (HPC)
[2] = dose: 120.0 mg/kg/injection, schedule: Q01DX005 (ip), vehicle: Klucel (hydroxypropylcellulose) (HPC)
[3] = dose: 60.0 mg/kg/injection, schedule: Q01DX005 (ip), vehicle: saline with Tween-80
[4] = dose: 120.0 mg/kg/injection, schedule: Q01DX005 (ip), vehicle: saline with Tween-80
[5] = dose: 240.0 mg/kg/injection, schedule: Q01DX005 (ip), vehicle: saline with Tween-80
[6] = dose: 50.0 mg/kg/injection, schedule: Q01DX005 (ip), vehicle: saline with Tween-80
[7] = dose: 100.0 mg/kg/injection, schedule: Q01DX005 (ip), vehicle: saline with Tween-80
[8] = dose: 200.0 mg/kg/injection, schedule: Q01DX005 (ip), vehicle: saline with Tween-80
[9] = dose: 50.0 mg/kg/injection, schedule: Q01DX009 (ip), vehicle: saline with Tween-80
[10] = dose: 100.0 mg/kg/injection, schedule: Q01DX009 (ip), vehicle: saline with Tween-80
[11] = dose: 200.0 mg/kg/injection, schedule: Q01DX009 (ip), vehicle: saline with Tween-80
[12] = dose: 50.0 mg/kg/injection, schedule: Q01DX005 (ip), vehicle: Klucel (hydroxypropylcellulose) (HPC)
[13] = dose: 100.0 mg/kg/injection, schedule: Q01DX005 (ip), vehicle: Klucel (hydroxypropylcellulose) (HPC)
[14] = dose: 200.0 mg/kg/injection, schedule: Q01DX005 (ip), vehicle: Klucel (hydroxypropylcellulose) (HPC)

`COc1cc(NC(=O)N(CCCl)N=O)cc(OC)c1OC` was tested, and the T/C (dose: 0.18 mg/kg/injection, schedule: Q01DX009 (ip), vehicle: alcohol) was 107 % of control, the T/C (dose: 0.27 mg/kg/injection, schedule: Q01DX009 (ip), vehicle: alcohol) was 109 % of control and the T/C (dose: 0.4 mg/kg/injection, schedule: Q01DX009 (ip), vehicle: alcohol) was 100 % of control. The T/C (dose: 0.6 mg/kg/injection, schedule: Q01DX009 (ip), vehicle: alcohol) was 107 % of control, the T/C (dose: 1.33 mg/kg/injection, schedule: Q01DX009 (ip), vehicle: saline + alcohol) was 173 % of control and the T/C (dose: 2.0 mg/kg/injection, schedule: Q01DX009 (ip), vehicle: saline + alcohol) was 170 % of control. For the same molecule, the T/C (dose: 7.5 mg/kg/injection, schedule: Q04DX003 (ip), vehicle: saline + alcohol) was 154 % of control, the T/C (dose: 12.5 mg/kg/injection, schedule: Q04DX003 (ip), vehicle: other) was 215 % of control and the T/C (dose: 25.0 mg/kg/injection, schedule: Q04DX003 (ip), vehicle: other) was 280 % of control. The T/C (dose: 50.0 mg/kg/injection, schedule: Q04DX003 (ip), vehicle: other) was 300 % of control.
With `CCOC(=O)C1(c2ccccc2)CCN(c2c3ccccc3nc3ccccc23)CC1` the T/C (dose: 25.0 mg/kg/injection, schedule: Q04DX003 (ip), vehicle: Klucel (hydroxypropylcellulose) (HPC)) was 112 % of control, the T/C (dose: 50.0 mg/kg/injection, schedule: Q04DX003 (ip), vehicle: Klucel (hydroxypropylcellulose) (HPC)) was 111 % of control and the T/C (dose: 100.0 mg/kg/injection, schedule: Q04DX003 (ip), vehicle: Klucel (hydroxypropylcellulose) (HPC)) was 111 % of control and 115 % of control.
`c1ccc(N2CN(c3ccccc3)C2)cc1` was tested, and the T/C [1] was 88 % of control, the T/C [2] was 86 % of control and the T/C (dose: 240.0 mg/kg/injection, schedule: Q01DX005 (ip), vehicle: Klucel (hydroxypropylcellulose) (HPC)) was 88 % of control.
With `CCC(=O)/C=C/c1cc(OC)c(OC)c(OC)c1` the T/C (dose: 100.0 mg/kg/injection, schedule: Q01DX001 (ip), vehicle: Klucel (hydroxypropylcellulose) (HPC)) was 107 % of control, the T/C (dose: 200.0 mg/kg/injection, schedule: Q01DX001 (ip), vehicle: Klucel (hydroxypropylcellulose) (HPC)) was 107 % of control and the T/C (dose: 400.0 mg/kg/injection, schedule: Q01DX001 (ip), vehicle: Klucel (hydroxypropylcellulose) (HPC)) was 100 % of control.
`CCC[N+]1=C/c2ccccc2OC(=O)/C=C\1[O-]` was tested, and the T/C [3] was 101 % of control, the T/C [4] was 99 % of control and the T/C [5] was 100 % of control.
In the case of `CC1=NN(C(=O)NS(=O)(=O)c2ccc(CCNC(=O)c3nccnc3N)cc2)C(C)(C)C1`, the T/C [6] is reported as 102 % of control, the T/C [7] is reported as 105 % of control and the T/C [8] is reported as 102 % of control.
With `CC1=NN(C(=O)c2cccnc2)C(=O)C1N=Nc1ccc(S(=O)(=O)Nc2nc(C)cc(C)n2)cc1` (stereo not drawn) the T/C [9] was 101 % of control, the T/C [10] was 99 % of control and the T/C [11] was 99 % of control.
In the case of `O=C(/C=C\c1ccc(C2OCCO2)cc1)c1ccccc1`, the T/C (dose: 100.0 mg/kg/injection, schedule: Q04DX002 (ip), vehicle: saline with Tween-80) is reported as 111 % of control, the T/C (dose: 200.0 mg/kg/injection, schedule: Q04DX002 (ip), vehicle: saline with Tween-80) is reported as 103 % of control and the T/C (dose: 400.0 mg/kg/injection, schedule: Q04DX002 (ip), vehicle: saline with Tween-80) is reported as 92 % of control.
For `C1CN1P1(N2CC2)=NP(N2CC2)(N2CC2)=NP(N2CC2)(N2CC2)=N1`, the T/C (dose: 5.0 mg/kg/injection, schedule: Q01DX009 (ip), vehicle: saline) was 231 % of control, the T/C (dose: 10.0 mg/kg/injection, schedule: Q01DX009 (ip), vehicle: saline) was 222 % of control and the T/C (dose: 20.0 mg/kg/injection, schedule: Q01DX009 (ip), vehicle: saline) was 122 % of control.
For `CC(=O)CCC1=C(C)C(=O)C(=O)C(C)=C1O`, the T/C [1] was 96 % of control and the T/C [2] was 98 % of control.
For `COP(=O)(OC)O[Si](C)(C)CC[Si](C)(C)Cl`, the T/C [12] was 105 % of control, the T/C [13] was 105 % of control and the T/C [14] was 99 % of control.
In the case of `COc1ccc2oc3cc4c(c(O)c3c(=O)c2c1CC=C(C)C)C=CC(C)(C)O4`, the T/C [12] is reported as 88 % of control, the T/C [13] is reported as 86 % of control and the T/C [14] is reported as 87 % of control.
For `O=[N+]([O-])c1ccc(C2=C[P+](c3ccccc3)(c3ccccc3)C=C(c3ccccc3)O2)cc1`, the T/C (dose: 1.5 mg/kg/injection, schedule: Q01DX005 (ip), vehicle: saline with Tween-80) was 115 % of control, the T/C (dose: 1.5 mg/kg/injection, schedule: Q01DX005 (ip), vehicle: saline) was 117 % of control and the T/C (dose: 3.0 mg/kg/injection, schedule: Q01DX005 (ip), vehicle: saline with Tween-80) was 113 % of control. The T/C (dose: 3.0 mg/kg/injection, schedule: Q01DX005 (ip), vehicle: saline) was 124 % of control.
For `CCN(CC)CCOc1ccc(C2=C(c3ccccc3)CCc3cc(OC)ccc32)cc1`, the T/C (dose: 100.0 mg/kg/injection, schedule: Q04DX003 (ip), vehicle: saline with Tween-80) was 100 % of control and the T/C (dose: 200.0 mg/kg/injection, schedule: Q04DX003 (ip), vehicle: saline with Tween-80) was 104 % of control.
`C/C(=N\N=C(N)N)c1cccc(/C(C)=N/N=C(N)N)n1` was tested, and the T/C (dose: 6.25 mg/kg/injection, schedule: Q01DX009 (ip), vehicle: saline with Tween-80) was 101 % of control, the T/C (dose: 25.0 mg/kg/injection, schedule: Q01DX009 (ip), vehicle: saline with Tween-80) was 110 % of control and the T/C [9] was 90 % of control.
For `C[Si](C)(C)Cn1cccc1`, the T/C [3] was 103 % of control, the T/C [4] was 102 % of control and the T/C [5] was 94 % of control.
In the case of `CCCC(O)C(NC(=O)c1ccccc1)C(=O)O` (stereo not drawn), the T/C [9] is reported as 92 % of control, the T/C [10] is reported as 98 % of control and 95 % of control and the T/C [11] is reported as 95 % of control and 98 % of control.
With `NC(=S)n1nc(-c2ccccc2)c(N=Nc2ccc(O)cc2)c1-c1ccccc1` the T/C [6] was 100 % of control, the T/C [7] was 103 % of control and the T/C [8] was 98 % of control.
In the case of `Cc1c(-c2ccccc2)nn(CC(=O)O)c(=O)c1C#N`, the T/C (dose: 37.5 mg/kg/injection, schedule: Q04DX002 (ip), vehicle: alkali diluted with water) is reported as 106 % of control, the T/C (dose: 75.0 mg/kg/injection, schedule: Q04DX002 (ip), vehicle: alkali diluted with water) is reported as 104 % of control and the T/C (dose: 150.0 mg/kg/injection, schedule: Q04DX002 (ip), vehicle: alkali diluted with water) is reported as 106 % of control. The T/C (dose: 300.0 mg/kg/injection, schedule: Q04DX002 (ip), vehicle: alkali diluted with water) was 103 % of control.
In the case of `CCOC(=O)NCCCBr`, the T/C [9] is reported as 105 % of control, the T/C [10] is reported as 99 % of control and the T/C [11] is reported as 107 % of control.
For `COc1cc2c(c3c1c(=O)c1cccnc1n3C)C=CC(C)(C)O2`, the T/C [12] was 101 % of control, the T/C [13] was 101 % of control and the T/C [14] was 91 % of control.
With `[Mn]=[Se]` the T/C (dose: 7.5 mg/kg/injection, schedule: Q01DX005 (ip), vehicle: other) was 101 % of control, the T/C (dose: 15.0 mg/kg/injection, schedule: Q01DX005 (ip), vehicle: other) was 100 % of control and 103 % of control and the T/C (dose: 30.0 mg/kg/injection, schedule: Q01DX005 (ip), vehicle: other) was 103 % of control and 94 % of control. For the same molecule, the T/C (dose: 60.0 mg/kg/injection, schedule: Q01DX005 (ip), vehicle: acid diluted with saline) was 110 % of control and the T/C (dose: 60.0 mg/kg/injection, schedule: Q01DX005 (ip), vehicle: other) was 100 % of control.
For `COc1cc[n+](CC(=O)c2c[nH]c3ccccc23)cc1`, the T/C (dose: 50.0 mg/kg/injection, schedule: Q01DX009 (ip), vehicle: Klucel (hydroxypropylcellulose) (HPC)) was 103 % of control and the T/C (dose: 100.0 mg/kg/injection, schedule: Q01DX009 (ip), vehicle: Klucel (hydroxypropylcellulose) (HPC)) was 109 % of control.
With `NC(=O)CC1(O)c2ccccc2C(=O)c2ccccc21` the T/C (dose: 3.13 mg/kg/injection, schedule: Q01DX009 (ip), vehicle: clinical formulation) was 97 % of control, the T/C (dose: 6.25 mg/kg/injection, schedule: Q01DX009 (ip), vehicle: clinical formulation) was 104 % of control and the T/C (dose: 12.5 mg/kg/injection, schedule: Q01DX009 (ip), vehicle: clinical formulation) was 97 % of control. The T/C (dose: 25.0 mg/kg/injection, schedule: Q01DX009 (ip), vehicle: clinical formulation) was 94 % of control, the T/C (dose: 50.0 mg/kg/injection, schedule: Q01DX009 (ip), vehicle: clinical formulation) was 97 % of control and the T/C (dose: 100.0 mg/kg/injection, schedule: Q01DX009 (ip), vehicle: clinical formulation) was 100 % of control.
